From patent US20230278972A1, “SUBSTITUTED HALOALKYL SULFONANILIDE HERBICIDES” (FMC Corporation, priority 2020, published 2023)

Assays:
Assay type in all cases: in vivo
[1] = test system: ragweed (common ragweed, Ambrosia artemisiifolia); assay: Test A preemergence, ragweed; settings: Preemergence; for Ragweed plant response rating: 125 g ai/ha, visual injury on 0 to 100 scale (0 no effect, 100 complete control), approximately 10 days; for Plant response rating, Ragweed: 0 to 100 scale (0 no effect, 100 complete control)
How it was run: (§1)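 Preemergence: seeded pots of loam plus sand received a directed soil spray. Postemergence: seedlings at one to two leaves, 2 to 10 cm high, were oversprayed. Each compound was formulated in a non-phytotoxic solvent mix that included a surfactant.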

[2] = test system: Foxtail, Giant (giant foxtail, Setaria faberi); assay: Test A preemergence, Foxtail, Giant; settings: Preemergence; for Foxtail, Giant plant response rating: 125 g ai/ha, visual injury on 0 to 100 scale (0 no effect, 100 complete control), approximately 10 days; for Plant response rating, Foxtail, Giant: 0 to 100 scale (0 no effect, 100 complete control)
How it was run: as §1

[3] = test system: pigweed (Amaranthus retroflexus); assay: Test A preemergence, pigweed; settings: for Pigweed plant response rating: 125 g ai/ha, visual injury on 0 to 100 scale (0 no effect, 100 complete control), approximately 10 days; for Plant response rating, Pigweed: 0 to 100 scale (0 no effect, 100 complete control)
How it was run: (§2)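 Directed soil spray at planting gave the preemergence treatment, while foliar application to one- to two-leaf seedlings (2–10 cm) gave the postemergence one; pots held a loam and sand mixture and chemicals were carried in a non-phytotoxic solvent with surfactant.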

[4] = test system: wheat (Triticum aestivum); assay: Test A postemergence, wheat; settings: Postemergence; for Wheat plant response rating: 500 g ai/ha, visual injury vs untreated controls after approx. 10 days
How it was run: as §2

[5] = test system: Foxtail, Giant (giant foxtail, Setaria faberi); assay: Test A postemergence, Foxtail, Giant; settings: Postemergence; for Foxtail, Giant plant response rating: 500 g ai/ha, visual injury vs untreated controls after approx. 10 days
How it was run: as §1

[6] = test system: Ryegrass, Italian (Italian ryegrass, Lolium multiflorum); assay: Test A preemergence, Ryegrass, Italian; settings: Preemergence; for Ryegrass, Italian plant response rating: 125 g ai/ha, visual injury on 0 to 100 scale (0 no effect, 100 complete control), approximately 10 days; for Plant response rating, Ryegrass, Italian: 0 to 100 scale (0 no effect, 100 complete control)
How it was run: as §1

[7] = test system: corn (Zea mays); assay: Test A postemergence, corn; settings: Postemergence; for Corn plant response rating: 500 g ai/ha, visual injury vs untreated controls after approx. 10 days
How it was run: as §1

[8] = test system: galium (catchweed bedstraw, Galium aparine); assay: Test A postemergence, galium; settings: Postemergence; for Galium plant response rating: 500 g ai/ha, visual injury vs untreated controls after approx. 10 days
How it was run: as §2

[9] = test system: kochia (Bassia scoparia); assay: Test A postemergence, kochia; settings: Postemergence; for Kochia plant response rating: 500 g ai/ha, visual injury vs untreated controls after approx. 10 days
How it was run: as §1

[10] = test system: pigweed (Amaranthus retroflexus); assay: Test A postemergence, pigweed; settings: Postemergence; for Pigweed plant response rating: 500 g ai/ha, visual injury vs untreated controls after approx. 10 days
How it was run: as §1

[11] = test system: kochia (Bassia scoparia); assay: Test A preemergence, kochia; settings: Preemergence; for Kochia plant response rating: 125 g ai/ha, visual injury on 0 to 100 scale (0 no effect, 100 complete control), approximately 10 days; for Plant response rating, Kochia: 0 to 100 scale (0 no effect, 100 complete control)
How it was run: as §1

[12] = test system: barnyardgrass (Echinochloa crus-galli); assay: Test A preemergence, barnyardgrass; settings: Preemergence; for Barnyardgrass plant response rating: 125 g ai/ha, visual injury on 0 to 100 scale (0 no effect, 100 complete control), approximately 10 days; for Plant response rating, Barnyardgrass: 0 to 100 scale (0 no effect, 100 complete control)
How it was run: as §1

[13] = test system: barnyardgrass (Echinochloa crus-galli); assay: Test A postemergence, barnyardgrass; settings: Postemergence; for Barnyardgrass plant response rating: 500 g ai/ha, visual injury vs untreated controls after approx. 10 days
How it was run: as §2

[14] = test system: Ryegrass, Italian (Italian ryegrass, Lolium multiflorum); assay: Test A postemergence, Ryegrass, Italian; settings: Postemergence; for Ryegrass, Italian plant response rating: 500 g ai/ha, visual injury vs untreated controls after approx. 10 days
How it was run: as §1

[15] = test system: blackgrass (Alopecurus myosuroides); assay: Test A postemergence, blackgrass; settings: Postemergence; for Blackgrass plant response rating: 500 g ai/ha, visual injury vs untreated controls after approx. 10 days
How it was run: as §1

[16] = test system: ragweed (common ragweed, Ambrosia artemisiifolia); assay: Test A postemergence, ragweed; settings: Postemergence; for Ragweed plant response rating: 500 g ai/ha, visual injury vs untreated controls after approx. 10 days
How it was run: as §1

[17] = 125 g ai/ha, visual injury approx. 10 days, 0 to 100 scale (0 no effect, 100 complete control)
[18] = 0 to 100 scale (0 no effect, 100 complete control)
[19] = 31 g ai/ha, visual injury, approx. 10 days
[20] = 31 g ai/ha, 0 to 100 scale (0 no effect, 100 complete control)
[21] = 31 g ai/ha, visual injury on 0 to 100 scale (0 no effect, 100 complete control), approx. 10 days
[22] = 125 g ai/ha, 0 to 100 scale (0 no effect, 100 complete control)

Cc1cc(C#N)c(C(=O)N2CCCCC2)cc1NS(=O)(=O)C(F)(F)F [Compound 126]
Ragweed plant response rating [1]: 0
Plant response rating, Ragweed ([1]; 500 g ai/ha): 30
Foxtail, Giant plant response rating [2]: 20
Plant response rating, Foxtail, Giant ([2]; 500 g ai/ha): 90
Pigweed plant response rating [3]: 70
Plant response rating, Pigweed ([3]; 500 g ai/ha): 100
Plant response rating, Wheat [4, 17]: 0
Wheat plant response rating [4, 18]: 0
Plant response rating, Foxtail, Giant [5, 17]: 0
Foxtail, Giant plant response rating [5, 18]: 0
Ryegrass, Italian plant response rating [6]: 0
Plant response rating, Ryegrass, Italian ([6]; 500 g ai/ha): 40
Plant response rating, Corn [7, 17]: 0
Corn plant response rating [7, 18]: 20
Plant response rating, Galium [8, 17]: 80
Galium plant response rating [8, 18]: 90
Plant response rating, Kochia [9, 17]: 10
Kochia plant response rating [9, 18]: 30
Plant response rating, Pigweed [10, 17]: 70
Pigweed plant response rating [10, 18]: 90
Kochia plant response rating [11]: 0
Plant response rating, Kochia ([11]; 500 g ai/ha): 30
Barnyardgrass plant response rating [12]: 0
Plant response rating, Barnyardgrass ([12]; 500 g ai/ha): 40
Plant response rating, Barnyardgrass [13, 17]: 0
Barnyardgrass plant response rating [13, 18]: 0
Plant response rating, Ryegrass, Italian [14, 17]: 0
Ryegrass, Italian plant response rating [14, 18]: 0
Plant response rating, Blackgrass [15, 17]: 20
Blackgrass plant response rating [15, 18]: 30
Plant response rating, Ragweed [16, 17]: 0
Ragweed plant response rating [16, 18]: 30

COC1CCCN(C(=O)c2cc(NS(=O)(=O)C(F)(F)F)c(C)c(F)c2C)C1 (centres unmarked) [Compound 98]
Plant response rating, Ragweed [1, 19]: 30
Ragweed plant response rating [1]: 80
Plant response rating, Foxtail, Giant [2, 19]: 80
Foxtail, Giant plant response rating [2]: 100
Plant response rating, Pigweed [3, 19]: 70
Pigweed plant response rating [3]: 100
Plant response rating, Wheat [4, 20]: 0
Plant response rating, Wheat [4, 17]: 40
Plant response rating, Foxtail, Giant [5, 20]: 0
Plant response rating, Foxtail, Giant [5, 17]: 20
Plant response rating, Ryegrass, Italian [6, 19]: 30
Ryegrass, Italian plant response rating [6]: 50
Plant response rating, Corn [7, 20]: 0
Plant response rating, Corn [7, 17]: 10
Plant response rating, Galium [8, 20]: 60
Plant response rating, Galium [8, 17]: 90
Plant response rating, Kochia [9, 20]: 10
Plant response rating, Kochia [9, 17]: 20
Plant response rating, Pigweed [10, 20]: 30
Plant response rating, Pigweed [10, 17]: 80
Plant response rating, Kochia [11, 19]: 40
Kochia plant response rating [11]: 40
Plant response rating, Barnyardgrass [12, 19]: 0
Barnyardgrass plant response rating [12]: 90
Plant response rating, Barnyardgrass [13, 20]: 0
Plant response rating, Barnyardgrass [13, 17]: 50
Plant response rating, Ryegrass, Italian [14, 20]: 30
Plant response rating, Ryegrass, Italian [14, 17]: 30
Plant response rating, Blackgrass [15, 20]: 20
Plant response rating, Blackgrass [15, 17]: 0
Plant response rating, Ragweed [16, 20]: 50
Plant response rating, Ragweed [16, 17]: 60

COC1(OC)CCN(C(=O)c2cc(NS(=O)(=O)C(F)(F)F)c(C)cc2C)CC1 [Compound 101]
Ragweed plant response rating [1]: 60
Plant response rating, Ragweed ([1]; 500 g ai/ha): 80
Foxtail, Giant plant response rating [2]: 90
Plant response rating, Foxtail, Giant ([2]; 500 g ai/ha): 100
Pigweed plant response rating [3]: 90
Plant response rating, Pigweed ([3]; 500 g ai/ha): 90
Plant response rating, Wheat [4, 17]: 0
Wheat plant response rating [4, 18]: 60
Plant response rating, Foxtail, Giant [5, 17]: 0
Foxtail, Giant plant response rating [5, 18]: 80
Ryegrass, Italian plant response rating [6]: 80
Plant response rating, Ryegrass, Italian ([6]; 500 g ai/ha): 100
Plant response rating, Corn [7, 17]: 20
Corn plant response rating [7, 18]: 30
Plant response rating, Galium [8, 17]: 80
Galium plant response rating [8, 18]: 90
Plant response rating, Kochia [9, 17]: 10
Kochia plant response rating [9, 18]: 30
Plant response rating, Pigweed [10, 17]: 70
Pigweed plant response rating [10, 18]: 90
Kochia plant response rating [11]: 60
Plant response rating, Kochia ([11]; 500 g ai/ha): 90
Barnyardgrass plant response rating [12]: 100
Plant response rating, Barnyardgrass ([12]; 500 g ai/ha): 100
Plant response rating, Barnyardgrass [13, 17]: 80
Barnyardgrass plant response rating [13, 18]: 90
Plant response rating, Ryegrass, Italian [14, 17]: 60
Ryegrass, Italian plant response rating [14, 18]: 70
Plant response rating, Blackgrass [15, 17]: 20
Blackgrass plant response rating [15, 18]: 20
Plant response rating, Ragweed [16, 17]: 50
Ragweed plant response rating [16, 18]: 70

Cc1cc(C)c(C(=O)N2CCC(C#N)CC2)cc1NS(=O)(=O)C(F)(F)F [Compound 162]
Plant response rating, Ragweed [1, 19]: 0
Ragweed plant response rating [1]: 30
Plant response rating, Foxtail, Giant [2, 19]: 100
Foxtail, Giant plant response rating [2]: 90
Plant response rating, Pigweed [3, 19]: 100
Pigweed plant response rating [3]: 100
Plant response rating, Wheat [4, 21]: 30
Plant response rating, Wheat [4, 22]: 50
Plant response rating, Foxtail, Giant [5, 21]: 10
Plant response rating, Foxtail, Giant [5, 22]: 30
Plant response rating, Ryegrass, Italian [6, 19]: 40
Ryegrass, Italian plant response rating [6]: 70
Plant response rating, Corn [7, 21]: 20
Plant response rating, Corn [7, 22]: 20
Plant response rating, Galium [8, 21]: 80
Plant response rating, Galium [8, 22]: 100
Plant response rating, Kochia [9, 21]: 10
Plant response rating, Kochia [9, 22]: 10
Plant response rating, Pigweed [10, 21]: 50
Plant response rating, Pigweed [10, 22]: 60
Plant response rating, Kochia [11, 19]: 30
Kochia plant response rating [11]: 40
Plant response rating, Barnyardgrass [12, 19]: 0
Barnyardgrass plant response rating [12]: 60
Plant response rating, Barnyardgrass [13, 21]: 40
Plant response rating, Barnyardgrass [13, 22]: 80
Plant response rating, Ryegrass, Italian [14, 21]: 0
Plant response rating, Ryegrass, Italian [14, 22]: 30
Plant response rating, Blackgrass [15, 21]: 20
Plant response rating, Blackgrass [15, 22]: 20
Plant response rating, Ragweed [16, 21]: 60
Plant response rating, Ragweed [16, 22]: 60
